Common to all, as to assay: inhibition of tumour cell growth, NCI panel, 48 h
The test system of assay [1] is COLO 205 colon.
Assay [2] relates to HCT-116 colon.
Assay [3] concerns MOLT-4 leukemia.
For assay [4], the system named is OVCAR-5 ovarian.
Assay [5] has as its system RXF 393 renal.
Assay [6] concerns SK-MEL-2 melanoma.
Assay [7] has as its system SK-OV-3 ovarian.
The test system of assay [8] is SN12C renal.
Assay [9] deals with SW-620 colon.
In assay [10] the test system is TK-10 renal.

SMILES strings stand for the structures.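 The compound was tested at five concentrations on cells cultured in 96-well plates, with a 48-hour exposure period. Here, GI50 denotes the concentration required for 50% inhibition of growth. Definition used: TGI = concentration required for complete inhibition of growth.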 Where only a bound is given, the exact number is not on record here.

In the case of `CCOC(=O)/C(=C/c1c(-c2ccccc2)[nH]c2ccccc12)C(=O)c1ccc(Cl)cc1`, the GI50 in assay [1] was 1980 nM; in assay [2], 2760 nM; in assay [3], 2570 nM; in assay [4], over 100 µM; in [5], 17.4 µM; in [6], 3.99 µM. Besides, the GI50 in assay [7] was 4.38 µM; in assay [8], 3.35 µM; in assay [9] it was 4.53 µM; in assay [10] it was 28200 nM. Further, the TGI was 4.36 µM in assay [1]; over 100 µM in assay [2]; 8.21 µM in assay [3]; over 100 µM in assay [4]; over 100 µM in assay [5]; 47.5 µM in assay [6]. Besides, the TGI in assay [7], in [8], in assay [9] and in assay [10] was over 100 µM throughout.
In the case of `COc1ccccc1NS(=O)(=O)c1cc(C(C)(C)C)ccc1OCCOc1ccc(C(C)(C)C)cc1S(=O)(=O)Nc1ccccc1OC`, the TGI in [1], in assay [2], in assay [3], in [4], in assay [5] and in [6] was over 100 µM throughout. Also, the TGI in assay [7], in [8], in [9] and in assay [10] was over 100 µM throughout.
Consider `COc1cc2nc(-c3ccc(Cl)cc3)cc(OCCCN3CCC(O)CC3)c2cc1OC`, for which the GI50 in assay [1] was 532 nM; in [2] it was 1440 nM; in assay [3], 1800 nM; in assay [4] it was 1.16 µM; in assay [5], 1.22 µM; in [6], 2.07 µM. The GI50 is 3.17 µM in assay [7], 1.26 µM in assay [8], 3.05 µM in assay [9] and 2140 nM in [10]. For the same compound, the TGI in [1] stood at 4.11 µM; in assay [2], 11.3 µM; in [3] it was 4.54 µM; in assay [4], 15.6 µM; in [5], 4.07 µM; in [6], 5.05 µM. Also, the TGI is 21.8 µM in [7], 22.1 µM in assay [8], 13 µM in [9] and 6.75 µM in [10].
As for `Nc1cc2c3c(cccc3c1)C(=O)N(CCN1CCN(CCN3C(=O)c4cccc5cc(N)cc(c45)C3=O)CC1)C2=O`, the TGI in assay [1], in assay [2], in [3], in assay [4], in [5] and in assay [6] was over 100 µM each time. Moreover, the TGI in [7], in assay [8], in [9] and in assay [10] was over 100 µM throughout.
Turning to `COc1cc2c(c(Br)c1N)-c1cc(Br)c(N)cc1C2=O`, the GI50 in assay [1] was over 87000 nM; in assay [2], 3490 nM; in assay [3], over 100000 nM; in [4], 0.0894 µM; in assay [5] it was over 100 µM; in [6], over 100 µM. The GI50 in assay [7] was 11.3 µM; in assay [8], 6.33 µM; in assay [9] it was over 100 µM; in [10], 354 nM. Also, the TGI in [1], in assay [2], in assay [3], in assay [4], in assay [5] and in [6] was over 100 µM in each case. Further, the TGI was over 73.5 µM in [7], over 100 µM in assay [8], over 100 µM in assay [9] and over 100 µM in [10].
`COC1C2c3ccccc3C(C#N)(Cc3ccc4c(c32)OCO4)N1C(=O)c1ccccc1` (stereo not given): the TGI in assay [1] was 82.6 µM; in [2] it was over 100 µM; in [3], over 100 µM; in assay [4] it was over 100 µM; in assay [5], over 100 µM; in assay [6] it was over 100 µM. For the same compound, the TGI in [7], in assay [8], in [9] and in assay [10] was over 100 µM each time.
On to `COc1ccc(C2=NN(c3ccc(S(N)(=O)=O)cc3)C(c3ccc(Cl)cc3)C2)c(O)c1` (stereo not given), for which the GI50 was 3590 nM in [1]; 2320 nM in [2]; 1920 nM in [3]; 9.44 µM in assay [4]; 2.53 µM in [5]; 6.3 µM in [6]. The GI50 in assay [7] is 8.23 µM; in assay [8], 5.09 µM; in assay [9], 3.68 µM; in assay [10], 2490 nM. In addition, the TGI was found to be 13.3 µM in assay [1]; 8.63 µM in assay [2]; 5.07 µM in assay [3]; 29.3 µM in [4]; 9.78 µM in assay [5]; 22.7 µM in assay [6]. For the same compound, the TGI was 56 µM in assay [7], 18.3 µM in [8], 14.8 µM in assay [9] and 9.02 µM in assay [10].
Take `Cc1ccc2c(c1)/C(=N\N=C/c1cn(C(C)C)c3ccccc13)C(=O)N2`: the GI50 in assay [1] was 324 nM; in assay [2], 1090 nM; in [3], 252 nM; in assay [4], 35.1 µM; in [5], 4.31 µM; in [6] it was 2.3 µM. In addition, the GI50 in assay [7] was over 100 µM; in [8], 4.47 µM; in assay [9] it was 0.937 µM; in assay [10], 15000 nM. The TGI in assay [1] was 2.08 µM; in [2], over 100 µM; in [3] it was 0.753 µM; in assay [4] it was over 100 µM; in [5], over 100 µM; in assay [6] it was 23 µM. Besides, the TGI in [7], in assay [8], in [9] and in assay [10] was over 100 µM in each case.

For the origin of these results see PubChem BioAssay (NCI).
